From patent US20240239767A1 (AstraZeneca AB, priority 2022, published 2024)

Columns and labels:
[1] = target: T1, potassium ion channel hERG (human Ether-á-go-go-Related Gene) (Homo sapiens, UniProt Q12809); assay: Assay 5 - hERG assay (SyncroPatch 384PE patch clamp, CHO cells); type: cell-based; settings: geometric mean, CHO cells over-expressing hERG, read-out: Assay 5 (hERG Hu CHO IF EPh CR-Syncro) GMean IC50
T1 construct: expressed in transfected cells; host or cells: Chinese hamster ovary K1 (CHO)
T1 sequence (Q12809 whole entry): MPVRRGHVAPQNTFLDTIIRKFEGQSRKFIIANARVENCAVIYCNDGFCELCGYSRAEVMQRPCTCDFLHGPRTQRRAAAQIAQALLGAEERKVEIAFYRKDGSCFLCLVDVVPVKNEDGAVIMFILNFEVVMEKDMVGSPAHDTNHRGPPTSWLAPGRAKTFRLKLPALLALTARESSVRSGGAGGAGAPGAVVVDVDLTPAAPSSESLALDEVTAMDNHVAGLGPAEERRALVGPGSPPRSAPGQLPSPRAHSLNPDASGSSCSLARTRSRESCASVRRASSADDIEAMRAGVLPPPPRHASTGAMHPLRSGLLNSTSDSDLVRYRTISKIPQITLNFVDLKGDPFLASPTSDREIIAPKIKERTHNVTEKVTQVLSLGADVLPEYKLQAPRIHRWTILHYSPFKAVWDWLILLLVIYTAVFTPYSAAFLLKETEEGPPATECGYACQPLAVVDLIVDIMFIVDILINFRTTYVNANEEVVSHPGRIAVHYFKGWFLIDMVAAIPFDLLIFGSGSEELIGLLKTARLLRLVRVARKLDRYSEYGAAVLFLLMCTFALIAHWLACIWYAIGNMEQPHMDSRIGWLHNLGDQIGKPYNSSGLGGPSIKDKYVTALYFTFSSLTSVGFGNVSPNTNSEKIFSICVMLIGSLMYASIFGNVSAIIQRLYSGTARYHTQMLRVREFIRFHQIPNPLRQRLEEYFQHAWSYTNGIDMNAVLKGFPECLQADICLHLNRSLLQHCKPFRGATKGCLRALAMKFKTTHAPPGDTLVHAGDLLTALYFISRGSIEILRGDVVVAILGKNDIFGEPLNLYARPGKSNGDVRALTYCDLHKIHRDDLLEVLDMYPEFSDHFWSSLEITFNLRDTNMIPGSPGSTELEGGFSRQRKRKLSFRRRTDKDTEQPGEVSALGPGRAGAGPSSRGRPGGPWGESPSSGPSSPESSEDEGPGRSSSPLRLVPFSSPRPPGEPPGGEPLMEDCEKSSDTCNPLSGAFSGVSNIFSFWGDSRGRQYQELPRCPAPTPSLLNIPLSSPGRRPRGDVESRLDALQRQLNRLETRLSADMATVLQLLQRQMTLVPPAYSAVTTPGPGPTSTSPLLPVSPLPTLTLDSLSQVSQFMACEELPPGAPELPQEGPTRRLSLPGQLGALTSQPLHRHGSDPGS
Procedure, shortened: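 Automated whole-cell patch clamp at room temperature on CHO-K1 cells over-expressing hERG, using K-fluoride/escin internal solution (pH 7.2) and NMDG-containing external solution (pH 7.4). Compounds were tested in a 6-point cumulative format, 0.33% final DMSO. Wells accepted only with seal >30 MegaOhm, Z′>0.4 and current >0.2 nA.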

PCSK9 [2] = target: PCSK9 (Homo sapiens, UniProt Q8NBP7); assay: Assay 2 - Biophysical human PCSK9 assay (SPR, Biacore); type: binding; set-up: biotinylated human PCSK9 (31-692)-Avi-His6; settings: geometric mean; SPR single-cycle kinetics, 30° C.; read-out: Assay 2 (PCSK9 BIAcore DBA CR) GMean Kd
Chain of PCSK9 (Homo sapiens, UniProt Q8NBP7) (Q8NBP7 31-692): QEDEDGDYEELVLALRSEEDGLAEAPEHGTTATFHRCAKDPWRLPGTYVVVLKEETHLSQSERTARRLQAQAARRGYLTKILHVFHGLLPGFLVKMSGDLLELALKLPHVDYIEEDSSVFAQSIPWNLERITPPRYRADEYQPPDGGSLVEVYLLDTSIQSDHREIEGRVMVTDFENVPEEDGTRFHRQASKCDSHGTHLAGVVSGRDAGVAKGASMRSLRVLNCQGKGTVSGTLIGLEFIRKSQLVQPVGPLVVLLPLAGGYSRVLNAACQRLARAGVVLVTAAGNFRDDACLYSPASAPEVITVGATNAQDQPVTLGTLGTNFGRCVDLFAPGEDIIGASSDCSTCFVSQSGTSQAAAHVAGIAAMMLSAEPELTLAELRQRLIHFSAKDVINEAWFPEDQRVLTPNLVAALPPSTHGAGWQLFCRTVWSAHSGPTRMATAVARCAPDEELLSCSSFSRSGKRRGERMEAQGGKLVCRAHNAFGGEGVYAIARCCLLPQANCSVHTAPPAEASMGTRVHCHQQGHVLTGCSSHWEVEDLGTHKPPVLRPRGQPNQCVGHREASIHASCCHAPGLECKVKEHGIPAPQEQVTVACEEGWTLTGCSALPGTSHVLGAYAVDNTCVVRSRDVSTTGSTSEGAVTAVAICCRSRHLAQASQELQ
Procedure: The SPR binding experiments were performed on a Biacore S200 optical biosensor unit at 30° C. A Series S Sensor Chip SA that is designed to bind biotinylated molecules for interaction analysis in Biacore systems was equilibrated at room temperature prior to use. The running buffer for protein tethering and subsequent ligand binding experiments was 10 mM HEPES pH 7.4, 150 mM NaCl, 0.05% (v/v) Tween 20 pH 7.4.
For the surface tethering of PCSK9, biotinylated human PCSK9 (31-692)-Avi-His6 at a concentration of 0.5 mg/mL was used. Prior to the surface tethering, the surface was exposed to a solution of 50 mM NaOH, 500 mM NaCl via 3 consecutive injections of this solution with a contact time of 60 s and a flowrate of 10 μL min- to remove non-conjugated streptavidin. The PCSK9 protein was diluted to a concentration of 20 μg/mL using running buffer and injected with a contact time of 180-300 s and a flowrate of 10 μL min^−1 over a single flow channel (typically flow channel 2 or flow channel 4) with the aim to achieve protein capture levels of >5000 response units (RU). Remaining biotin binding sites were blocked via 2 consecutive injections of a 10 μM D-biotin solution in running buffer with a contact time of 60 s and a flowrate of 10 μL min^−1 over all flow-channels.
The binding experiments were all performed at a flow rate of 30 μL min^−1 and by employing the method of single-cycle kinetics. This approach involves the sequential injection of a compound concentration series without regeneration steps. A contact time between 90-150 s was selected, which was followed by a 40 min dissociation phase to allow for a proper estimation of the dissociation rate constant. Test compounds were delivered in DMSO at a concentration of 10 mM and a digital dispenser HP D300 was used to set up the compound concentration series using 6 concentrations. The tested concentrations have been 30, 100, 300, 1000, 3000 and 10000 nM. Prior to injecting any compound, the surfaces were equilibrated by injecting running buffer over them in three separate pulses. The data collection rate was set to 10 Hz.
The raw sensorgrams of the compound injections were first subjected to reference subtraction (subtracting the signal from flow channel 1 and/or 3 from the signal from channels 2 and/or 4 respectively) and then blank subtraction (subtracting the signal from injecting DMSO controls from the reference subtracted data). The resulting double-referenced sensorgrams were then fitted using a 1:1 binding interaction model using the manufactures software package to extract kinetic- and affinity data.

[3] = target: GSK3b (Glycogen synthase kinase-3 beta) (Homo sapiens, UniProt P49841); assay: Assay 6 - GSK3b assay (ThermoFisher, FRET Z-Lyte); type: biochemical; settings: geometric mean; ATP Conc: 10.000 μM; read-out: Assay 6 (GSK3B FRET-Z-Lyte CR) GMean IC50 (μM) ATP Conc: 10.000
Chain of GSK3b (Glycogen synthase kinase-3 beta) (P49841 whole entry): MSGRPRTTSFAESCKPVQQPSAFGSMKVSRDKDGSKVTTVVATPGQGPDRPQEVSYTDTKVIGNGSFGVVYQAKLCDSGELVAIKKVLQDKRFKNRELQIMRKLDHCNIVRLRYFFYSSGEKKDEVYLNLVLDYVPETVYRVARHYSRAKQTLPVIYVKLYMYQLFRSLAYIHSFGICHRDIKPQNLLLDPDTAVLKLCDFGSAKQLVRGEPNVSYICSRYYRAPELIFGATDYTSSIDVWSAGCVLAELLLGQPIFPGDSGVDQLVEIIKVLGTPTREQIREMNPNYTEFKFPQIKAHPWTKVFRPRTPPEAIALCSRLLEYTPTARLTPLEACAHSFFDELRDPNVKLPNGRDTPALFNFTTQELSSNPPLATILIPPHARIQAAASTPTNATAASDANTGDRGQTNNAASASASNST
Procedure, shortened: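 Z-Lyte FRET kinase assay: 0.22-0.92 ng GSK3β with 2 μM Ser/Thr 09 peptide in 50 mM HEPES pH 7.5, 10 mM MgCl2, 1 mM EGTA, 0.01% BRIJ-35, 60 min at room temperature, then 60 min development. Compounds in 1% DMSO, 10-point 3-fold dilutions from 10 μM; sigmoidal dose-response fit.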

PCSK9 [4] = target: T2, PCSK9 (Homo sapiens, UniProt Q8NBP7, G670E/V474I); assay: cell-based
Target sequence in this assay (Q8NBP7 31-152): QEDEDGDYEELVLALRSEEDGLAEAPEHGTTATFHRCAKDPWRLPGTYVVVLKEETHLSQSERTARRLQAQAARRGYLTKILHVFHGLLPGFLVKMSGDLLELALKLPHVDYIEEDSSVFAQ
Target sequence in this assay (Q8NBP7 153-692 V474I/G670E): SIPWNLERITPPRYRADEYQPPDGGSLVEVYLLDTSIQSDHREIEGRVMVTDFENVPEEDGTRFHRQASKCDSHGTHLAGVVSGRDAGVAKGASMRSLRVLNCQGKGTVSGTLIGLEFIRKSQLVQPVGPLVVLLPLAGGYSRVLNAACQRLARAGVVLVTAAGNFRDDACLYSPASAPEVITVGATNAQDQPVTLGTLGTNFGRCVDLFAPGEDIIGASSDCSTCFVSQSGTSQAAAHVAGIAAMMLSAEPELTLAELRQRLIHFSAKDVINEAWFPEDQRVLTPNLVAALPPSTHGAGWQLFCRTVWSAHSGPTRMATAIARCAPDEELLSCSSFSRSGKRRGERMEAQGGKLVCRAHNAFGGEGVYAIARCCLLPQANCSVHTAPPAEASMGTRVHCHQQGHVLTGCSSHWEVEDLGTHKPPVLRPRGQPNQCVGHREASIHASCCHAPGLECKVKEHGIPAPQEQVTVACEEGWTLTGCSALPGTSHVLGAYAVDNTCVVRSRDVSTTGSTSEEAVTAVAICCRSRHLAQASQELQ
Excerpt: This assay measures for PCSK9 antagonist activity based on a test compound's capacity to restore LDL-C uptake in HepG2 cells. The assay is based on exogenous PCSK9 and LDL-C complexed with a pH-sensitive dye. Outside the cells, at neutral pH, the pHrodo Red-LDL is dimly fluorescent but upon LDLR mediated endocytosis it fluoresces brightly. PCSK9 traffics the LDLR to intracellular degradation and reduces uptake of LDL-C. Inhibition of PCSK9 reduces LDLR degradation and the increased LDL-C uptake is quantified by fluorescence microscopy.
Cell medium: MEM supplemented with 10% FBS, 1× NEAA and Sodium Pyruvate
Assay medium: OptiMem supplemented with penicillin/streptomycin
Cells: HepG2 (ATCC #HB-8065)
Cryopreserved HepG2 cells were thawed in assay medium and centrifuged for 5 min at 250 g. Supernatant was discarded and the cell pellet resuspended in cell medium and counted with a Nucleocounter. Cells were again centrifuged 5 min at 250 g and the pellet was resuspended to 500000 cells/mL in assay medium. • 2. 20 μL of above cell mix was dispensed into black pclear TC treated 384 well plates with Multidrop Combi and left at room temperature for 20 minutes. • 3. Plates were incubated at 37° C., 5% CO2 for 24 h
Test compounds were prepared in concentration response in DMSO with a half-log dilution factor in DMSO in Echo 384 LDV plates starting at 10 mM. • 2. 30 nL of above test compounds were dispensed with Echo 655 to cells for a top concentration of 10 μM • 3. […] Plates were incubated at 37° C., 5% CO2 for 24 h
10 μL pHrodo Red-LDL in assay medium was dispensed to cells with Multidrop Combi for 6 μg/mL • 2. Plates were incubated at 37° C., 5% CO2 and imaged with the Incucyte S3 after 4 h and 24 h
Image data was processed using Incucyte 2021, a software to identify cells and red fluorescent intensity. Screener was used to further process data. Data was normalized as % effect of the signal between median values of the on-plate controls of DMSO and 100 nM Evolocumab according to the formula % effect=−100*(x−DMSO)/(Evolocumab−DMSO) where x equals the measured signal. Concentration response data of the normalized values were fitted using a four-parameter logistic fit.

PCSK9 [5] = target: T2, PCSK9; assay: biochemical
Target sequence in this assay (Q8NBP7 with tags, fused parts or gaps V474I/G670E): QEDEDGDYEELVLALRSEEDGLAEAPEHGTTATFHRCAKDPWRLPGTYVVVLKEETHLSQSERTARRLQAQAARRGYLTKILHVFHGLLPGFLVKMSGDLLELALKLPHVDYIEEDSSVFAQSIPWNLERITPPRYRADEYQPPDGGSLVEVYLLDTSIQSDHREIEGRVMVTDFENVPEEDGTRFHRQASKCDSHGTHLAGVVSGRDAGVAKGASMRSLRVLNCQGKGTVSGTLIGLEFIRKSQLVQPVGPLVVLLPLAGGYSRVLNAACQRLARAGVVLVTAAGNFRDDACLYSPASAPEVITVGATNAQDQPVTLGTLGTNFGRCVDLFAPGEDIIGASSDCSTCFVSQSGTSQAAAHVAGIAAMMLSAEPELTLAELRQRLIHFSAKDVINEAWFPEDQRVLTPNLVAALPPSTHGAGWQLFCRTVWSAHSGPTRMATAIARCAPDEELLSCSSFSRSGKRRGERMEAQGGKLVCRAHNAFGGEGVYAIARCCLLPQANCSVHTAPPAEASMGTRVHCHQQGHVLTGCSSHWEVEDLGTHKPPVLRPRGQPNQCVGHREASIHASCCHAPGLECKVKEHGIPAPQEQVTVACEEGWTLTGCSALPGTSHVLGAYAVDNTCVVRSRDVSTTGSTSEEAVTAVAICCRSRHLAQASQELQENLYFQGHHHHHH

SMILES	IC50 [1]	Kd (PCSK9 [2])	IC50 [3]	IC50 (PCSK9 [4])	IC50 (PCSK9 [5])
COc1ccc(=O)n(-c2ccc(N[C@H]3CC[C@H](Nc4nc5cccnc5s4)C3)nc2)c1 [Example 25, 5-Methoxy-6′-(((1S,3S)-3-(thiazolo[5,4-b]pyridin-2-ylamino)cyclopentyl)amino)-2H-[1,3′-bipyridin]-2-one]	> 40000 nM	4 nM	0.053 µM	51 nM	5.6 nM
O=c1ccccn1-c1ccc(N[C@H]2CC[C@H](Nc3nc4cc(OC(F)F)cnc4[nH]3)C2)nc1 [Example 60, 6′-(((1S,3S)-3-((6-(Difluoromethoxy)-3H-imidazo[4,5-b]pyridin-2-yl)amino)cyclopentyl)amino)-2H-[1,3′-bipyridin]-2-one]	33000 nM	1 nM	–	41 nM	0.6 nM
O=c1ccc2cccnc2n1-c1ccc(N[C@H]2CC[C@H](Nc3nc4cccnc4[nH]3)C2)nc1 [Example 34, 1-(6-(((1S,3S)-3-((3H-Imidazo[4,5-b]pyridin-2-yl)amino)cyclopentyl)amino)pyridin-3-yl)-1,8-naphthyridin-2(1H)-one]	> 40000 nM	1 nM	> 10 µM	98 nM	1.2 nM
CN1C(=O)CN(c2ccc(N[C@H]3CC[C@H](Nc4nc5cccnc5[nH]4)C3)nc2)C1=O [Example 37, 1-(6-(((1S,3S)-3-((3H-Imidazo[4,5-b]pyridin-2-yl)amino)cyclopentyl)amino)pyridin-3-yl)-3-methylimidazolidine-2,4-dione]	> 40000 nM	3 nM	> 10 µM	127 nM	4.4 nM
COc1cccc(F)c1-c1ccc(N[C@H]2CC[C@H](Nc3nc4cccnc4[nH]3)C2)nc1 [Example 67, (1S,3S)—N^1-(5-(2-Fluoro-6-methoxyphenyl)pyridin-2-yl)-N^3-(3H-imidazo[4,5-b]pyridin-2-yl)cyclopentane-1,3-diamine]	3980 nM	57 nM	> 10 µM	–	18.1 nM
O=c1ccccn1-c1ccc(N[C@H]2CC[C@H](Nc3nc4ccc(CO)cc4o3)C2)nc1 [Example 4, 6′-(((1S,3S)-3-((6-(Hydroxymethyl)benzo[d]oxazol-2-yl)amino)cyclopentyl)amino)-2H-[1,3′-bipyridin]-2-one]	> 40000 nM	49 nM	> 10 µM	–	32.2 nM
O=c1[nH]c2ccsc2c(=O)n1-c1ccc(N[C@H]2CC[C@H](Nc3nc4cccnc4s3)C2)nc1 [Example 83, 3-(6-(((1S,3S)-3-(Thiazolo[5,4-b]pyridin-2-ylamino)cyclopentyl)amino)pyridin-3-yl)thieno[3,2-d]pyrimidine-2,4(1H,3H)-dione]	> 40100 nM	0.1 nM	> 10 µM	79 nM	0.5 nM
O=c1ccccn1-c1ccc(N[C@H]2CC[C@H](Nc3nc4cccnc4s3)C2)nc1 [Example 19, 6′-(((1S,3S)-3-(Thiazolo[5,4-b]pyridin-2-ylamino)cyclopentyl)amino)-2H-[1,3′-bipyridin]-2-one]	> 40000 nM	4 nM	> 10 µM	157 nM	4.4 nM
O=c1ccccn1-c1ccc(N[C@H]2CC[C@H](Nc3nc4ncccc4s3)C2)nc1 [Example 20, 6′-(((1S,3S)-3-(Thiazolo[4,5-b]pyridin-2-ylamino)cyclopentyl)amino)-2H-[1,3′-bipyridin]-2-one]	> 40100 nM	672 nM	> 10 µM	–	603 nM
COc1cccn(-c2ccc(N[C@H]3CC[C@H](Nc4nc5cccnc5o4)C3)nc2)c1=O [Example 12, 3-Methoxy-6′-(((1S,3S)-3-(oxazolo[5,4-b]pyridin-2-ylamino)cyclopentyl)amino)-2H-[1,3′-bipyridin]-2-one]	> 40000 nM	3 nM	> 10 µM	158 nM	3.5 nM
N#Cc1cccn(-c2ccc(N[C@H]3CC[C@H](Nc4nc5cccnc5o4)C3)nc2)c1=O [Example 15, 6′-(((1S,3S)-3-(Oxazolo[5,4-b]pyridin-2-ylamino)cyclopentyl)amino)-2-oxo-2H-[1,3′-bipyridine]-3-carbonitrile]	> 40000 nM	3 nM	> 10 µM	76 nM	3.1 nM
O=c1c(OC(F)F)cccn1-c1ccc(N[C@H]2CC[C@H](Nc3nc4cccnc4s3)C2)nc1 [Example 81, 3-(Difluoromethoxy)-6′-(((1S,3S)-3-(thiazolo[5,4-b]pyridin-2-ylamino)cyclopentyl)amino)-2H-[1,3′-bipyridin]-2-one]	6120 nM	–	> 10 µM	108 nM	1.5 nM
O=c1ccccn1-c1ccc(N[C@H]2CC[C@H](Nc3nc4ccccc4[nH]3)C2)nc1 [Example 10, 6′-(((1S,3S)-3-((1H-Benzo[d]imidazol-2-yl)amino)cyclopentyl)amino)-2H-[1,3′-bipyridin]-2-one]	4000 nM	1550 nM	> 10 µM	–	2470 nM
COc1cccn(-c2ccc(N[C@H]3CC[C@H](Nc4nc5cccnc5[nH]4)C3)nc2)c1=O [Example 41, 6′-(((1S,3S)-3-((3H-Imidazo[4,5-b]pyridin-2-yl)amino)cyclopentyl)amino)-3-methoxy-2H-[1,3′-bipyridin]-2-one]	> 40000 nM	–	0.066 µM	186 nM	3.5 nM
O=c1ccccn1-c1ccc(N[C@H]2CC[C@H](Nc3nc4cc(F)cnc4[nH]3)C2)nc1 [Example 48, 6′-(((1S,3S)-3-((6-Fluoro-3H-imidazo[4,5-b]pyridin-2-yl)amino)cyclopentyl)amino)-2H-[1,3′-bipyridin]-2-one]	> 40000 nM	–	0.805 µM	100 nM	2.1 nM
O=c1ccccn1-c1ccc(N[C@H]2CC[C@H](Nc3nc4cc(Br)cnc4s3)C2)nc1 [Compound 87, 6′-(((1S,3S)-3-((6-Bromothiazolo[5,4-b]pyridin-2-yl)amino)cyclopentyl)amino)-2H-[1,3′-bipyridin]-2-one]	4310 nM	–	6.74 µM	410 nM	1.4 nM
O=c1ccccn1-c1ccc(N[C@H]2CC[C@H](Nc3nc4cc(Br)cnc4[nH]3)C2)nc1 [Example 54, 6′-(((1S,3S)-3-((6-Bromo-3H-imidazo[4,5-b]pyridin-2-yl)amino)cyclopentyl)amino)-2H-[1,3′-bipyridin]-2-one]	> 40100 nM	–	0.306 µM	41 nM	0.7 nM
O=c1ccccn1-c1ccc(N[C@H]2CC[C@H](Nc3nc4cccnc4o3)C2)nc1 [Example 11, 6′-(((1S,3S)-3-(Oxazolo[5,4-b]pyridin-2-ylamino)cyclopentyl)amino)-2H-[1,3′-bipyridin]-2-one]	> 40000 nM	24 nM	> 10 µM	–	28 nM
N#Cc1ccc2nc(N[C@H]3CC[C@H](Nc4ccc(-n5ccccc5=O)cn4)C3)oc2c1 [Example 5, 2-(((1S,3S)-3-((2-Oxo-2H-[1,3′-bipyridin]-6′-yl)amino)cyclopentyl)amino)benzo[d]oxazole-6-carbonitrile]	6000 nM	–	5.52 µM	1720 nM	8.9 nM
